These results are taken from patent US7993824B2, “Compositions and methods for determining the susceptibility of a pathogenic virus to protease inhibitors” (Monogram Biosciences, Inc., priority 2002, dated 2011).

Structures are written as SMILES.

Assay [1] has as its system HIV-1 from the patient sample. Put plainly: PHENOSENSE HIV phenotypic susceptibility assay on patient plasma samples (IC50 fold change vs NL4-3 reference). It is filed as cell-based. Conditions: for fold change in IC50: patient sample with L10I, I13V, E35D, M36I, R41K, I50V, L63P, A71V, N88N/S, L90M in HIV protease, vs NL4-3 reference. As to the method: In a preferred embodiment, the phenotypic analysis is performed using PHENOSENSE™ (ViroLogic Inc., South San Francisco, Calif.). See Petropoulos et al., 2000, Antimicrob. Agents Chemother. 44:920-928; U.S. Pat. Nos. 5,837,464 and 6,242,187. PHENOSENSE™ is a phenotypic assay that achieves the benefits of phenotypic testing and overcomes the drawbacks of previous assays. Because the assay has been automated, PHENOSENSE™ offers higher throughput under controlled conditions. The result is an assay that accurately defines the susceptibility profile of a patient's HIV isolates to all currently available antiretroviral drugs, and delivers results directly to the physician within about 10 to about 15 days of sample receipt. PHENOSENSE™ is accurate and can obtain results with only one round of viral replication, thereby avoiding selection of subpopulations of virus. The results are quantitative, measuring varying degrees of drug susceptibility, and sensitive—the test can be performed on blood specimens with a viral load of about 500 copies/mL and can detect minority populations of some drug-resistant virus at concentrations of 10% or less of total viral population. Furthermore, the results are reproducible and can vary by less than about 1.4-2.5 fold, depending on the drug, in about 95% of the assays performed.
PHENOSENSE™ can be used with nucleic acids from amplified viral gene sequences. As discussed in Section 5.4.1, the sample containing the virus may be a sample from a human or an animal infected with the virus or a sample from a culture of viral cells. In one embodiment, the viral sample comprises a genetically modified laboratory strain.
(§1) A resistance test vector (“RTV”) can then be constructed by incorporating the amplified viral gene sequences into a replication defective viral vector by using any method known in the art of incorporating gene sequences into a vector. In one embodiment, restrictions enzymes and conventional cloning methods are used. See Sambrook et al., 2001, Molecular Cloning: A Laboratory Manual, Cold Spring Harbor Laboratory, 3rd ed., NY; and Ausubel et al., 1989, Current Protocols in Molecular Biology, Greene Publishing Associates and Wiley Interscience, NY. In a preferred embodiment, ApaI and PinAI restriction enzymes are used. Preferably, the replication defective viral vector is the indicator gene viral vector (“IGVV”). In a preferred embodiment, the viral vector contains a means for detecting replication of the RTV. Preferably, the viral vector contains a luciferase expression cassette.
(§2) The assay can be performed by first co-transfecting host cells with RTV DNA and a plasmid that expresses the envelope proteins of another retrovirus, for example, amphotropic murine leukemia virus (MLV). Following transfection, virus particles can be harvested and used to infect fresh target cells. The completion of a single round of viral replication can be detected by the means for detecting replication contained in the vector. In a preferred embodiment, the completion of a single round of viral replication results in the production of luciferase. Serial concentrations of anti-viral agents can be added at either the transfection step or the infection step.
(§3) Susceptibility to the anti-viral agent can be measured by comparing the replication of the vector in the presence and absence of the anti-viral agent. For example, susceptibility to the anti-viral agent can be measured by comparing the luciferase activity in the presence and absence of the anti-viral agent. Susceptible viruses would produce low levels of luciferase activity in the presence of antiviral agents, whereas viruses with reduced susceptibility would produce higher levels of luciferase activity.
The phenotypic assay was conducted using the PHENOSENSE™ (Virologic, South San Francisco, Calif.) HIV assay (Petropoulos et al., 2000, Antimicrob. Agents Chemother. 44:920-928; U.S. Pat. Nos. 5,837,464 and 6,242,187). […]

Assay [2] concerns HIV-1 clones containing I50V. Kind of assay: PhenoSense assay on protease clones (I50V; I50V+L90M; I50V+N88S) isolated from resistance test vector pools of one patient sample. In kind it is cell-based. Conditions: for mean fold change (FC), reduction in susceptibility: clones with I50V only, or I50V plus L90M.
Text: Drug names are abbreviated as follows: APV, amprenavir; IDV, indinavir; LPV, lopinavir; NFV, nelfinavir; RTV, ritonavir; SQV, saquinavir; ATV, atazanavir (BMS 232632).
as §1, §2, §3
Clones from the population were selected so as to isolate some clones with the N88S mutation and some without it. Resistance test vector pools constructed from the original plasma sample (Petropoulos et al., 2000, Antimicrob Agents Chemother 44:920-8) were transformed into E. Coli, and plasmid DNA from individual colonies was screened in the PhenoSense® assay for […].

The subject of another assay is HIV. Conditions: patients using amprenavir as their first PI; as low as; cited from earlier work.
Setting [3] is: I50V+N88S clones vs I50V clones.

For `CC(C)(C)NC(=O)[C@@H]1CN(Cc2cccnc2)CCN1C[C@@H](O)C[C@@H](Cc1ccccc1)C(=O)N[C@H]1c2ccccc2C[C@H]1O` [indinavir], in assay [1], the “fold change in IC50” value was found to be 1.4 fold.
Consider `CC(C)c1nc(CN(C)C(=O)N[C@H](C(=O)N[C@@H](Cc2ccccc2)C[C@H](O)[C@H](Cc2ccccc2)NC(=O)OCc2cncs2)C(C)C)cs1` [ritonavir], for which the “fold change in IC50” value in assay [1] is reported as 11 fold. Also, the “fold decrease in IC50 in the presence of N88S (susceptibility increased)” value in assay [2] (setting [3]) is on record as 1.4 fold. Also, the “mean fold change (FC), reduction in susceptibility” value (“mean fold change (FC), reduction” for short) in assay [2] was 12-20 FC.
As to `CC(C)(C)NC(=O)[C@@H]1C[C@@H]2CCCC[C@@H]2CN1C[C@@H](O)[C@H](Cc1ccccc1)NC(=O)[C@H](CC(N)=O)NC(=O)c1ccc2ccccc2n1` [saquinavir], the “fold change in IC50” value in assay [1] came to 3.6 fold. The “increase in FC with L90M” value in assay [2] (I50V plus L90M clones vs I50V only clones) is 1.8 fold.
Turning to `Cc1c(O)cccc1C(=O)N[C@@H](CSc1ccccc1)[C@H](O)CN1C[C@H]2CCCC[C@H]2C[C@H]1C(=O)NC(C)(C)C` [nelfinavir], the “fold change in IC50” value in assay [1] was 5.3 fold. In assay [2] (setting [3]), the “fold increase in IC50 in the presence of N88S (susceptibility decreased)” value is given as 2.1 fold. Moreover, in assay [2], the “mean fold change (FC), reduction” value was 7-10 FC.
On to `COC(=O)N[C@H](C(=O)N[C@@H](Cc1ccccc1)[C@@H](O)CN(Cc1ccc(-c2ccccn2)cc1)NC(=O)[C@@H](NC(=O)OC)C(C)(C)C)C(C)(C)C` [atazanavir], for which the “fold increase in IC50 in the presence of N88S (susceptibility decreased)” value in assay [2] (setting [3]) worked out at 2.3 fold.
Regarding `CC(C)CN(C[C@@H](O)[C@H](Cc1ccccc1)NC(=O)O[C@H]1CCOC1)S(=O)(=O)c1ccc(N)cc1` [amprenavir], in assay [1] (genotypically wild-type viruses, PhenoSense Assay), the “99th percentile for the distribution of FC in genotypically wild-type viruses” value is recorded as 2.1 fold. Also, in assay [1], the “fold change in IC50” value is 4.1 fold. Moreover, the “fold change for a virus containing I50V, but not N88S” value in assay [2] (FIG. 7 bar 1 for APV) is given as “about 17 fold”. In assay [2] (FIG. 7 bar 2 for APV, wild type level), the “fold change when the virus contained N88S in addition to I50V” value is 1.2 FC. Further, the “factor by which susceptibility was increased when N88S was present in combination with I50V” value in assay [2] (setting [3]) turned out to be 14.5. Besides, the “mean fold change (FC), reduction” value in assay [2] is 13-17 FC. The “reductions in susceptibility in patients who experienced viral load rebound” value with HIV is recorded as 2-3 fold.
As for `Cc1cccc(C)c1OCC(=O)N[C@@H](Cc1ccccc1)[C@@H](O)C[C@H](Cc1ccccc1)NC(=O)[C@H](C(C)C)N1CCCNC1=O` [lopinavir], in assay [1], the “fold change in IC50” value amounted to 3.3 fold. Also, the “fold decrease in IC50 in the presence of N88S (susceptibility increased)” value in assay [2] (setting [3]) worked out at 1.7 fold. In addition, the “mean fold change (FC), reduction” value in assay [2] is listed as 7-9 FC.
